From ChEMBL document CHEMBL5257144, “Novel Serine-Arginine Protein Kinase Inhibitors for Treating Cancer” (ACS Med Chem Lett, 2023)

target: SRSF protein kinase 1 (Homo sapiens, UniProt Q96SB4); assay: Inhibition of SRPK1 (unknown origin) using RS peptide as substrate incubated for 120 mins in the presence 33P-ATP
Sequence (Q96SB4 whole entry): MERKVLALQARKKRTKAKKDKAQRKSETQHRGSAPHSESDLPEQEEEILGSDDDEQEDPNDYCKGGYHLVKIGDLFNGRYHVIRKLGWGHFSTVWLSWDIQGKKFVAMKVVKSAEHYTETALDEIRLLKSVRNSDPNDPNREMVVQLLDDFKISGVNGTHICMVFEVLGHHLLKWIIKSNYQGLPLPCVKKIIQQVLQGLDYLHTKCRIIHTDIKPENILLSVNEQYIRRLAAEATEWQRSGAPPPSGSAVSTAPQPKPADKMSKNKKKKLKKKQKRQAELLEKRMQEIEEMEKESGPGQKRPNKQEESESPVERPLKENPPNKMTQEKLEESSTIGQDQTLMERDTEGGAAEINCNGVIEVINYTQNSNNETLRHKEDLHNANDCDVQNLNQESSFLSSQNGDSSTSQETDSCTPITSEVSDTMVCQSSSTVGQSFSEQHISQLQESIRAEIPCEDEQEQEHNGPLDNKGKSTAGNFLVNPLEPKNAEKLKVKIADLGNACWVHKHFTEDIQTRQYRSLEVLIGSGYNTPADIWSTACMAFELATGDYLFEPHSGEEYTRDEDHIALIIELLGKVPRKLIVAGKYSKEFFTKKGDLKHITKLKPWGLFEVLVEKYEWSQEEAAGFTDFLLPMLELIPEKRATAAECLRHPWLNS

IC50, < 0.05 µM:
CN(c1ncccc1CNc1cnc(-c2nc3cc(Cl)cc(F)c3[nH]2)nc1)S(C)(=O)=O
CN(c1ncccc1CNc1cnc(-c2nc3cc(F)cc(F)c3[nH]2)nc1)S(C)(=O)=O
CN(c1ncccc1CNc1cnc(-c2nc3cc(-c4cnn(C)c4)ccc3[nH]2)nc1)S(C)(=O)=O
CC(C)c1ccc2[nH]c(-c3ncc(NCc4cccnc4N(C)S(C)(=O)=O)cn3)nc2c1
Cc1ccc2nc(-c3ncc(NCc4cccnc4N(C)S(C)(=O)=O)cn3)[nH]c2c1
CN(c1ncccc1CNc1ccc(-c2nc3cc(Cl)ccc3[nH]2)nc1)S(C)(=O)=O
